PMC12775434, “Ultra-large virtual screening unveils potent agonists of the neuromodulatory orphan receptor GPR139” (Nature Communications, 2025)
Where “and” joins values, the source holds several entries; their conditions need not be identical. Identical values can stand only once. Like-named read-outs stand apart in the source and are kept apart here.

Tests used:
Assay type in all cases: cell-based
GPR139 [1] = target: T1, GPR139 (Homo sapiens, UniProt Q6DWJ6); assay: Ca2+ mobilization assay, antagonist mode (EC80 800 nM Lundbeck Cmp 1a after 20 min preincubation), GPR139-CHOk1; conditions: individual replicates (Supplementary Figure 4)
T1 sequence (Q6DWJ6 1-353): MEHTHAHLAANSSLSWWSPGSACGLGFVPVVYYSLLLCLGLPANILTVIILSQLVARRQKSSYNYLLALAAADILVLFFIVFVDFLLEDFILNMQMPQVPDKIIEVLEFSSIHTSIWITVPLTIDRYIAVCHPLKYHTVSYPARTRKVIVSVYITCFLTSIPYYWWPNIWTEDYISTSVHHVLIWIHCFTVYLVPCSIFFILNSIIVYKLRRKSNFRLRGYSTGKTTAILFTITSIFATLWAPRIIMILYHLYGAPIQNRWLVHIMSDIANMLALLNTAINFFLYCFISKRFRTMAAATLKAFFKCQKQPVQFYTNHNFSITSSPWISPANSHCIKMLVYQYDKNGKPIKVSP
How it was run: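 Antagonist mode: 800 nM (EC80) reference agonist Lundbeck Cmp 1a added following 20 min pre-incubation with 10 µM compound. GPR139-CHOk1 cells, Fluo-4 dye, probenecid-containing HEPES buffer pH 7.4; intracellular Ca2+ measured at 37 °C (ex 485, em 525 nm).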

[2] = target: T2, human muscarinic acetylcholine M1 receptor (M1R) (Homo sapiens, UniProt P11229); assay: Ca2+ mobilization counter-screen in M1R-CHOk1 cells; conditions: individual replicates (Supplementary Figure 5)
T2 sequence (P11229 1-460): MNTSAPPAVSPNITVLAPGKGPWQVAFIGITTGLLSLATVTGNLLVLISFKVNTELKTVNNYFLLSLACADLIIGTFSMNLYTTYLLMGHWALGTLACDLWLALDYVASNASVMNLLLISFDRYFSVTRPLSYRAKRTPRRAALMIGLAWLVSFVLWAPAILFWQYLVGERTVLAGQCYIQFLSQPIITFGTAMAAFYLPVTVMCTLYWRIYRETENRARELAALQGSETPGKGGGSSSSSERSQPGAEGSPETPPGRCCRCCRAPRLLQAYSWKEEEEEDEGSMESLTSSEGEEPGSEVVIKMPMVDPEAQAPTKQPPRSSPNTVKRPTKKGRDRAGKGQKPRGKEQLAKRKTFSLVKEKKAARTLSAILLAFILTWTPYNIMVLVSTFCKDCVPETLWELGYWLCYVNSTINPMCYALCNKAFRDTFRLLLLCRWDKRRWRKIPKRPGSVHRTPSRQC
Method: Primary screening and pharmacological characterization of compounds were performed using a CHO-K1 cell line that stably expresses human GPR139 (GPR139-CHOk1). The GPR139-CHOk1 cell line was kindly provided by H. Lundbeck A/S, Denmark[24]. GPR139-CHOk1 cells were grown in Ham’s F-12 Kaighn’s Modification Medium (ThermoFisher #21127030) supplemented with 10% dialyzed fetal bovine serum (US origin, ThermoFisher #26400044), 100 units/mL Penicillin-Streptomycin (ThermoFisher #15140122), and 1 mg/mL Geneticin (ThermoFisher #11811031). […] M1R-CHOk1 cells were purchased from The Missouri S&T cDNA Resource Center (#CEM100TN00). M1R-CHOk1 cells were grown in Ham’s F12 Medium (ThermoFisher #21765029) supplemented with 10% fetal bovine serum (Brazilian origin, ThermoFisher #10270106), 100 units/mL Penicillin-Streptomycin, and 0.25 mg/mL Geneticin. HEK293A cells transiently transfected with GPR139 were used for additional pharmacological assessment of signaling pathways activated by GPR139. HEK239A cells were generously provided by Dr. Asuka Inoue, Tohoku University, Japan. HEK293A cells were grown in Dulbecco’s Modified Eagle Medium (ThermoFisher #31966047) supplemented with 10% dialyzed fetal bovine serum and 100 units/mL Penicillin-Streptomycin. Cell lines were maintained at 37 °C in humidified incubator equilibrated with 5% CO2.
30,000 GPR139- or M1R-CHOk1 cells/well were seeded in black clear bottom tissue culture treated 96-well plates (Greiner #655090) and grown for 20–24 h. Cells were washed with HEPES buffer (Hank’s Balanced Salt Solution (HBBS) supplemented with 20 mM HEPES, 1 mM MgCl2, and 1 mM CaCl2; pH 7.4). Cells were loaded with 50 µL of 2 µM Fluo-4 AM dye (ThermoFisher #F14202) in HEPES buffer supplemented with 2.5 mM probenecid and 0.01% Pluronic F-68 (ThermoFisher #24040032) for 1 h at 37 °C. Cells were washed with HEPES buffer. 50 µL HEPES buffer supplemented with 2.5 mM probenecid was added, and the cells were incubated for 10 min at 37 °C before measurement. 50 µL test compounds diluted in HEPES buffer from DMSO stocks (final DMSO concentration of maximally 0.3%) were added automatically after baseline measurements. The intracellular calcium mobilization was measured on a FlexStation 3 Multimode Microplate Reader (Molecular Devices) at 37 °C with filters for excitation of 485 nm and emission of 525 nm.

GPR139 [3] = target: T1, GPR139; assay: Ca2+ mobilization assay, agonist mode, stable GPR139-CHOk1 cell line; conditions: for Emax: normalized to Lundbeck Cmp 1a, read-out: Emax (%) Ca2+
How it was run: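 Agonist activity of compounds is assessed in stably transfected CHO-K1 cells using the calcium dye Fluo-4 at 37 °C in HEPES-buffered HBSS (pH 7.4). Efficacy is expressed relative to the reference agonist Lundbeck Cmp 1a, set as 100%.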

[4] = Agonist mode, individual replicates (Supplementary Figure 4)
[5] = GPR139-CHOk1, read-out: EC50, Ca2+ mobilization
[6] = Supplementary Table 2, mean ± SEM
[7] = log [Compound] M = -4.5, individual replicate columns
[8] = log [Compound] M = -5.0, individual replicate columns
[9] = log [Compound] M = -5.5, individual replicate columns
[10] = log [Compound] M = -6.0, individual replicate columns
[11] = log [Compound] M = -6.5, individual replicate columns
[12] = log [Compound] M = -7.0, individual replicate columns
[13] = log [Compound] M = -7.5, individual replicate columns
[14] = log [Compound] M = -8.0, individual replicate columns
[15] = log [Compound] M = -8.5, individual replicate columns
[16] = log [Compound] M = -9.0, individual replicate columns
[17] = Supplementary Table 2, mean ± SEM, read-out: pEC50 Ca2+ (converted)

EC50 (GPR139 [3]; [5]) [nM]	Emax (GPR139 [3]; [6]) [%]	EC50 (GPR139 [3]; [17]) [nM]	SMILES	Ca2+ signal (% of Cmp 1a) (GPR139 [1])	Ca2+ signal (% of Carbachol) [2]	Ca2+ signal (% of Cmp 1a) (GPR139 [3]; [4])	Ca2+ signal (% of Cmp 1a) (GPR139 [3]; [7])	Ca2+ signal (% of Cmp 1a) (GPR139 [3]; [8])	Ca2+ signal (% of Cmp 1a) (GPR139 [3]; [9])	Ca2+ signal (% of Cmp 1a) (GPR139 [3]; [10])	Ca2+ signal (% of Cmp 1a) (GPR139 [3]; [11])	Ca2+ signal (% of Cmp 1a) (GPR139 [3]; [12])	Ca2+ signal (% of Cmp 1a) (GPR139 [3]; [13])	Ca2+ signal (% of Cmp 1a) (GPR139 [3]; [14])	Ca2+ signal (% of Cmp 1a) (GPR139 [3]; [15])	Ca2+ signal (% of Cmp 1a) (GPR139 [3]; [16])
100	109 ± 6	–	Cc1cccc(-c2nc(CC(=O)NC(C)c3ccccc3)no2)c1 (stereo not drawn) [Compound 1.3, CC(C1=CC=CC=C1)NC(CC2=NOC(C3=CC(C)=CC=C3)=N2)=O]	13 % of Cmp 1a and 0.333 % of Cmp 1a and -11 % of Cmp 1a	24 % of Carbachol and -2 % of Carbachol and 12 % of Carbachol	106 % of Cmp 1a and 102 % of Cmp 1a and 119 % of Cmp 1a	95 % of Cmp 1a and 109 % of Cmp 1a and 110 % of Cmp 1a and 97 % of Cmp 1a	91 % of Cmp 1a (2×) and 123 % of Cmp 1a and 104 % of Cmp 1a	80 % of Cmp 1a and 126 % of Cmp 1a and 100 % of Cmp 1a and 85 % of Cmp 1a	76 % of Cmp 1a and 101 % of Cmp 1a and 90 % of Cmp 1a and 71 % of Cmp 1a	55 % of Cmp 1a and 89 % of Cmp 1a and 72 % of Cmp 1a and 60 % of Cmp 1a	36 % of Cmp 1a and 68 % of Cmp 1a and 56 % of Cmp 1a and 52 % of Cmp 1a	12 % of Cmp 1a and 48 % of Cmp 1a (2×) and 34 % of Cmp 1a	5.33 % of Cmp 1a and 18 % of Cmp 1a and 26 % of Cmp 1a and 21 % of Cmp 1a	5 % of Cmp 1a and 3.67 % of Cmp 1a and 12 % of Cmp 1a and 9 % of Cmp 1a	-3 % of Cmp 1a and 12 % of Cmp 1a and 5.67 % of Cmp 1a and 8 % of Cmp 1a
–	114 ± 6	100	Cc1cc(-c2nc(CC(=O)NC(C)c3ccccc3)no2)cs1 (stereo not drawn) [Compound 1.4, CC(C1=CC=CC=C1)NC(CC2=NOC(C3=CSC(C)=C3)=N2)=O]	-0.333 % of Cmp 1a and -4 % of Cmp 1a and -17 % of Cmp 1a	-1 % of Carbachol and 20 % of Carbachol and -5 % of Carbachol	100 % of Cmp 1a and 61 % of Cmp 1a and 92 % of Cmp 1a	106 % of Cmp 1a and 107 % of Cmp 1a and 115 % of Cmp 1a and 110 % of Cmp 1a	109 % of Cmp 1a and 91 % of Cmp 1a and 131 % of Cmp 1a and 113 % of Cmp 1a	103 % of Cmp 1a and 82 % of Cmp 1a and 119 % of Cmp 1a and 123 % of Cmp 1a	107 % of Cmp 1a and 79 % of Cmp 1a and 97 % of Cmp 1a and 127 % of Cmp 1a	81 % of Cmp 1a and 66 % of Cmp 1a and 80 % of Cmp 1a and 103 % of Cmp 1a	48 % of Cmp 1a and 47 % of Cmp 1a and 54 % of Cmp 1a and 90 % of Cmp 1a	24 % of Cmp 1a and 22 % of Cmp 1a and 35 % of Cmp 1a and 47 % of Cmp 1a	5.33 % of Cmp 1a and 2.67 % of Cmp 1a and 18 % of Cmp 1a and 26 % of Cmp 1a	2.67 % of Cmp 1a (2×) and 7 % of Cmp 1a (2×)	6 % of Cmp 1a and 1.67 % of Cmp 1a and 13 % of Cmp 1a and 4.33 % of Cmp 1a
–	112 ± 10	158	Cc1ccc(-c2nc(CC(=O)NC(C)c3ccccc3)no2)o1 (stereo not drawn) [Compound 1.6, CC(C1=CC=CC=C1)NC(CC2=NOC(C3=CC=C(O3)C)=N2)=O]	-5.33 % of Cmp 1a and -3.67 % of Cmp 1a and -16 % of Cmp 1a	-2 % of Carbachol and -10 % of Carbachol and 10 % of Carbachol	102 % of Cmp 1a and 114 % of Cmp 1a and 83 % of Cmp 1a	98 % of Cmp 1a and 103 % of Cmp 1a and 120 % of Cmp 1a	89 % of Cmp 1a and 114 % of Cmp 1a and 105 % of Cmp 1a	87 % of Cmp 1a and 107 % of Cmp 1a and 97 % of Cmp 1a	70 % of Cmp 1a and 96 % of Cmp 1a and 81 % of Cmp 1a	48 % of Cmp 1a and 70 % of Cmp 1a and 59 % of Cmp 1a	17 % of Cmp 1a and 46 % of Cmp 1a and 43 % of Cmp 1a	-11 % of Cmp 1a and 21 % of Cmp 1a and 0 % of Cmp 1a	-16 % of Cmp 1a and -2 % of Cmp 1a and 1 % of Cmp 1a	-14 % of Cmp 1a and -8 % of Cmp 1a and -4 % of Cmp 1a	-22 % of Cmp 1a and -11 % of Cmp 1a and -20 % of Cmp 1a
200	107 ± 2	–	CC(NC(=O)Cc1noc(-c2cccs2)n1)c1ccccc1 (stereo not drawn) [Compound 1.8, CC(C1=CC=CC=C1)NC(CC2=NOC(C3=CC=CS3)=N2)=O]	-5.67 % of Cmp 1a and 1.33 % of Cmp 1a and -13 % of Cmp 1a	5 % of Carbachol and -12 % of Carbachol and 8 % of Carbachol	85 % of Cmp 1a and 73 % of Cmp 1a and 70 % of Cmp 1a	109 % of Cmp 1a and 116 % of Cmp 1a and 101 % of Cmp 1a	111 % of Cmp 1a and 105 % of Cmp 1a and 96 % of Cmp 1a	93 % of Cmp 1a and 94 % of Cmp 1a and 84 % of Cmp 1a	85 % of Cmp 1a and 82 % of Cmp 1a and 75 % of Cmp 1a	69 % of Cmp 1a and 70 % of Cmp 1a and 47 % of Cmp 1a	38 % of Cmp 1a and 47 % of Cmp 1a and 20 % of Cmp 1a	0.333 % of Cmp 1a and 13 % of Cmp 1a and 7 % of Cmp 1a	-16 % of Cmp 1a and -13 % of Cmp 1a and 1.67 % of Cmp 1a	-16 % of Cmp 1a and 4.67 % of Cmp 1a and -5.33 % of Cmp 1a	-11 % of Cmp 1a and -5.67 % of Cmp 1a and -13 % of Cmp 1a
